Source: patent publication US20040147545A1, “Derivatives of oxazolidinones as antibacterial agents” (priority 2001, published 2004)
In brackets after ≈: the same amount, converted by molar mass.

Legend:
Type in all cases: cell-based
E. coli = experiment: Antibacterial activity, microdilution in culture broth (NCCLS), strain H; conditions: Escherichia coli, G (−) hospital strain, inoculum 5×10^5 UFC/ml
Source text: (§1) The antibacterial activity of the new synthesised compounds on the various strains of the bacterial species was implemented using the technique of microdilution in culture broth according to the regulations of the National Committee for Clinical Laboratory Standards (NCCLS), (NCCLS. 1993. Methods for dilution antimicrobial susceptibility tests for bacteria that grow aerobically. Approved standard M7-A3. NCCLS, Vilanova. Pa., and NCCLS. 1993. Methods for dilution antimicrobial susceptibility tests for anaerobic bacteria […]. Approved standard M1-A3. NCCLS, Vilanova. Pa.).
(§2) The inoculum used was 5×10^5 UFC/ml following dilution of the cultures overnight in the exponential phase of bacterial growth.
(§3) The MIC expressed in mg/l was defined as the minimum concentration of antibiotic which inhibited any visible growth.
(§4) Linezolid was included as comparative compound.
(§5) The compounds were tested on the strains of G(+) and G(−) bacteria set out in Table 1, in which: […]

[1] = tested on: E. faecalis resistant to vancomycin; experiment: Antibacterial activity, microdilution in culture broth (NCCLS), strain B; conditions: Enterococcus faecalis, G (+) hospital strain, inoculum 5×10^5 UFC/ml
Source text: as §1, §2, §3, §4, §5

B. fragilis = experiment: Antibacterial activity, microdilution in culture broth (NCCLS), strain G (anaerobic); conditions: Bacteroides fragilis, anaerobic hospital strain, inoculum 5×10^5 UFC/ml
Source text: as §1, §2, §3, §4, §5

S. epidermidis = experiment: Antibacterial activity, microdilution in culture broth (NCCLS), strain E; conditions: Staphylococcus epidermidis, G (+) hospital strain, inoculum 5×10^5 UFC/ml
Source text: as §1, §2, §3, §4, §5

[2] = tested on: S. aureus resistant to meticillin; experiment: Antibacterial activity, microdilution in culture broth (NCCLS), strain A; conditions: Staphylococcus aureus, G (+) hospital strain, inoculum 5×10^5 UFC/ml
Source text: as §1, §2, §3, §4, §5

S. agalactiae = experiment: Antibacterial activity, microdilution in culture broth (NCCLS), strain D; conditions: Streptococcus agalactiae, G (+) hospital strain, inoculum 5×10^5 UFC/ml
Source text: as §1, §2, §3, §4, §5

M. Catarrahalis = experiment: Antibacterial activity, microdilution in culture broth (NCCLS), strain J; conditions: G (−) hospital strain, inoculum 5×10^5 UFC/ml
Source text: as §1, §2, §3, §4, §5

[3] = tested on: S. pneumoniae resistant to penicillin; experiment: Antibacterial activity, microdilution in culture broth (NCCLS), strain C; conditions: Streptococcus pneumoniae, G (+) hospital strain, inoculum 5×10^5 UFC/ml
Source text: as §1, §2, §3, §4, §5

H. influenzae = experiment: Antibacterial activity, microdilution in culture broth (NCCLS), strain I; conditions: Haemophilus influenzae, G (−) hospital strain, inoculum 5×10^5 UFC/ml
Source text: as §1, §2, §3, §4, §5

S. pyogenes = experiment: Antibacterial activity, microdilution in culture broth (NCCLS), strain F; conditions: Streptococcus pyogenes, G (+) hospital strain, inoculum 5×10^5 UFC/ml
Source text: as §1, §2, §3, §5

Row | MIC (E. coli) | MIC [1] | MIC (B. fragilis) | MIC (S. epidermidis) | MIC [2] | MIC (S. agalactiae) | MIC (M. Catarrahalis) | MIC [3] | MIC (H. influenzae) | MIC (S. pyogenes) | SMILES
1 | 64 µg/mL (≈ 109 µM) | < 0.125 µg/mL | 0.5 µg/mL (≈ 0.851 µM) | < 0.125 µg/mL | < 0.125 µg/mL | < 0.125 µg/mL | 0.5 µg/mL (≈ 0.851 µM) | < 0.125 µg/mL | 4 µg/mL (≈ 6.81 µM) | < 0.125 µg/mL | CCn1cc(C(=O)O)c(=O)c2cc(F)c(N3CCN(c4ccc(N5C[C@H](CNC(C)=O)OC5=O)cc4F)CC3)c(F)c21 [EXAMP. 3, 7-(4-{4-[5-(S)-(acetylamino-methyl)-2-oxo-oxazolidin-3-yl]-2-fluoro-phenyl}-piperazin-1-yl)-1-ethyl-6,8-difluoro-4-oxo-1,4-dihydro-quinoline-3-carboxylic Acid]
2 | 64 µg/mL (≈ 106 µM) | < 0.125 µg/mL | 0.5 µg/mL (≈ 0.826 µM) | < 0.125 µg/mL | < 0.125 µg/mL | < 0.125 µg/mL | 0.5 µg/mL (≈ 0.826 µM) | 0.25 µg/mL (≈ 0.413 µM) | 2 µg/mL (≈ 3.3 µM) | < 0.125 µg/mL | CC(=O)NC[C@H]1CN(c2ccc(N3CCN(c4c(F)cc5c(=O)c(C(=O)O)cn(CCF)c5c4F)CC3)c(F)c2)C(=O)O1 [EXAMP. 22, 7-(4-{4-[5-(S)-(acetylamino-methyl)-2-oxo-oxazolidin-3-yl]-2-fluoro-phenyl}-piperazin-1-yl)-6,8-difluoro-1-(2-fluoro-ethyl)-4-oxo-1,4-dihydro-quinoline-3-carboxylic Acid]
3 | 32 µg/mL (≈ 52.3 µM) | 0.5 µg/mL (≈ 0.818 µM) | 1 µg/mL (≈ 1.64 µM) | 0.125 µg/mL (≈ 0.204 µM) | 0.5 µg/mL (≈ 0.818 µM) | 1 µg/mL (≈ 1.64 µM) | 1 µg/mL (≈ 1.64 µM) | 0.5 µg/mL (≈ 0.818 µM) | 4 µg/mL (≈ 6.54 µM) | 0.5 µg/mL (≈ 0.818 µM) | CCOC(=O)NC[C@H]1CN(c2ccc(N3CCN(c4cc5c(cc4F)c(=O)c(C(=O)O)cn5C4CC4)CC3)c(F)c2)C(=O)O1 [EXAMP. 11, 1-cyclopropyl-7-(4-{4-[5-(S)-(ethoxycarbonylamino-methyl)-2-oxo-oxazolidin-3-yl]-2-fluoro-phenyl}-piperazin-1-yl)-6-fluoro-4-oxo-1,4-dihydro-quinoline-3-carboxylic Acid]
